Measurements: patent US20120202756A1, “USE OF PRODRUGS TO AVOID GI MEDIATED ADVERSE EVENTS” (priority 2009, published 2012)
In brackets after ≈: the same amount, converted by molar mass. Counter-ions that a name gives are not always drawn. Like-named read-outs stand apart in the source and are kept apart here.

Key:
[1] = tested on: Staphylococcus saprophyticus; details: antibiotic susceptible clinical isolate
[2] = Stability in simulated intestinal juice (FeSSIF); assay type: in vitro ADME; details: FeSSIF pH 5.0, pancreatin 1%
Method: (§1) To avoid direct interaction between the active drug and the gut microfloral population, the prodrug should not undergo premature chemical or enzymic cleavage back to the parent dug while within the gut lumen. To confirm this the prodrugs were incubated with USP SGF (simulated gastric fluid), FeSSIF (fed state simulated intestinal fluid) and FaSSIF (fasted state simulated intestinal fluid) and remaining prodrug and any generated active drug assayed by use of a qualified LC-MS/MS analytical method.
Pancreatin was again added at 1%.
(§2) To minimize the direct inhibitory action of this drug on gastric emptying/gut motility—and resultant nausea—the prodrug should not undergo premature chemical or enzymic cleavage back to the parent drug while within the gut lumen. To confirm this, the prodrugs were incubated with USP SGF (simulated gastric fluid), FeSSIF (fed state simulated intestinal fluid) and FaSSIF (fasted state simulated intestinal fluid) and remaining prodrug, and any generated active drug, assayed by use of a qualified LC-MS/MS analytical method.
as §1, with “gut,” for “gut microfloral population,”

[3] = relative bioavailability of clindamycin vs dosing clindamycin itself, male rats, mean
Method: Serial tail vein blood samples were subsequently collected via an indwelling cannuala into EDTA tubes containing a stabilising cocktail (including 6 mg/mL NaF) to prevent post collection enzymic hydrolysis of the prodrug.

Prevotella denticola = details: clinical isolate
Clostridium novyi = details: ATCC 19402
Enterococcus faecalis = details: ATCC 29212 antibiotic-susceptible type strain
Streptococcus oralis = details: antibiotic-susceptible clinical isolate
Listeria monocytogenes [4] = details: antibiotic-susceptible clinical isolate
Streptococcus mitis = details: antibiotic-susceptible clinical isolate
Corynebacterium jeikeium = details: antibiotic-susceptible clinical isolate
[5] = tested on: Peptostreptococcus micros; details: clinical isolate
[6] = tested on: Streptococcus constellatus; details: antibiotic-susceptible clinical isolate
Prevotella bivia [7] = details: ATCC 29303
Streptococcus agalactiae [8] = details: antibiotic-susceptable clinical isolate
Clostridium bifermentans = details: ATCC 638
[9] = tested on: Fusobacterium necrophorum; details: clinical isolate
Group G Streptococcus [10] = details: antibiotic-susceptible clinical isolate
[11] = tested on: Porphyromonas endodontalis; details: clinical isolate
Fusobacterium nucleatum [12] = details: clinical isolate
[13] = Stability in simulated intestinal juice (FaSSIF); assay type: in vitro ADME; details: FaSSIF pH 6.5, pancreatin 1%, prodrug 20 μg/mL
Method: as §1
(§3) Method—Prodrug (20 μg/mL) in the FaSSIF cocktail comprising sodium taurocholate 3 mM, lecithin 0.75 mM, NaOH 8.7 mM, NaH2PO4. H2O 28.7 mM, NaCl 106 mM, pancreatin 1% (overall pH 6.5) was incubated for 2 h at 37° C. After acidifying the incubation to stop any reaction the amount of prodrug remaining and drug generated were determined using a qualified LC-MS/MS method.
as §2
as §3, with “Prodrug” for “Method—Prodrug”
as §1, with “gut,” for “gut microfloral population,”

[14] = tested on: Peptostreptococcus magnus; details: clinical isolate
[15] = tested on: Porphyromonas assacharolyticus; assay: microbe, parasite or virus in culture; details: read-out: Minimum inhibitory concentration
Streptococcus agalactiae [16] = assay: microbe, parasite or virus in culture; details: read-out: Minimum inhibitory concentration
Prevotella bivia [17] = assay: microbe, parasite or virus in culture; details: ATCC29303, read-out: Minimum inhibitory concentration
Fusobacterium nucleatum [18] = assay: microbe, parasite or virus in culture; details: read-out: Minimum inhibitory concentration
Clostridium difficile = assay: microbe, parasite or virus in culture; details: Clostridioides difficile
[19] = tested on: Staphylococcus saprophyticus; assay: microbe, parasite or virus in culture; details: read-out: Minimum inhibitory concentration
Listeria monocytogenes [20] = assay: microbe, parasite or virus in culture; details: read-out: Minimum inhibitory concentration
[21] = tested on: Peptostreptococcus micros; assay: microbe, parasite or virus in culture; details: Parvimonas micra, read-out: Minimum inhibitory concentration
Group G Streptococcus [22] = assay: microbe, parasite or virus in culture; details: read-out: Minimum inhibitory concentration

In the case of CCCC1CC(C(=O)NC(C(C)Cl)C2OC(SC)C(OC(=O)CCCC(=O)Nc3ccc(C(=O)O)cc3)C(O)C2O)N(C)C1.O=C(O)C(F)(F)F (centres unmarked) [Clindamycin glutaryl PABA ester, Clindamycin-2-(glutaryl-PABA) ester trifluoroacetate], the Minimum inhibitory concentration [1] is reported as 4 µg/mL, the “Simulated intestinal juice (2 h, 37° C.) (FeSSIF) % active drug generated” value [2] is reported as <1% and the Frel [3] is reported as 51%. It also gave a Frel ([3]; listed as Clindamycin glutaryl PABA ethyl ester) of 51%, a Minimum inhibitory concentration (Prevotella denticola) of 4 µg/mL and a Minimum inhibitory concentration (Clostridium novyi) of 4 µg/mL. The Minimum inhibitory concentration (Enterococcus faecalis) was >64 µg/mL, the Minimum inhibitory concentration (Streptococcus oralis) was 0.5 µg/mL and the Minimum inhibitory concentration (Listeria monocytogenes [4]) was 32 µg/mL. For the same molecule, the Minimum inhibitory concentration (Streptococcus mitis) was 0.5 µg/mL, the Minimum inhibitory concentration (Corynebacterium jeikeium) was >64 µg/mL and the Minimum inhibitory concentration [5] was 8 µg/mL. The Minimum inhibitory concentration [6] was 2 µg/mL, the Minimum inhibitory concentration (Prevotella bivia [7]) was 1 µg/mL and the Minimum inhibitory concentration (Streptococcus agalactiae [8]) was 2 µg/mL. For the same molecule, the Minimum inhibitory concentration (Clostridium bifermentans) was 32 µg/mL, the Minimum inhibitory concentration [9] was 1 µg/mL and the Minimum inhibitory concentration (Group G Streptococcus [10]) was 2 µg/mL. For the same molecule, the Minimum inhibitory concentration [11] was 0.12 µg/mL, the Minimum inhibitory concentration (Fusobacterium nucleatum [12]) was 2 µg/mL and the “Simulated intestinal juice (2 h, 37° C.) (FaSSIF) % active drug generated” value [13] was <1%. It also gave a Minimum inhibitory concentration [14] of 64 µg/mL.
In the case of CCCC1CC(C(=O)NC(C(C)Cl)C2OC(SC)C(OC(=O)CCC(=O)N[C@H](C(=O)O)C(C)C)C(O)C2O)N(C)C1 (stereo partly drawn) [Clindamycin succinyl valine ester, Clindamycin-2-[succinyl-(S)-valine]ester trifluoroacetate], the Minimum inhibitory concentration [1] is reported as 1 µg/mL, the “Simulated intestinal juice (2 h, 37° C.) (FeSSIF) % active drug generated” value [2] is reported as <1% and the Frel [3] is reported as 8%. The Minimum inhibitory concentration (Prevotella denticola) was 1 µg/mL, the Minimum inhibitory concentration (Clostridium novyi) was 0.5 µg/mL and the Minimum inhibitory concentration (Enterococcus faecalis) was >64 µg/mL. The Minimum inhibitory concentration (Streptococcus oralis) was 0.25 µg/mL, the Minimum inhibitory concentration (Listeria monocytogenes [4]) was 16 µg/mL and the Minimum inhibitory concentration (Streptococcus mitis) was 0.25 µg/mL. The Minimum inhibitory concentration (Corynebacterium jeikeium) was >64 µg/mL, the Minimum inhibitory concentration [5] was 2 µg/mL and the Minimum inhibitory concentration [6] was 1 µg/mL. It also gave a Minimum inhibitory concentration (Prevotella bivia [7]) of 0.5 µg/mL, a Minimum inhibitory concentration (Streptococcus agalactiae [8]) of 1 µg/mL and a Minimum inhibitory concentration (Clostridium bifermentans) of 4 µg/mL. It also gave a Minimum inhibitory concentration [9] of 0.12 µg/mL, a Minimum inhibitory concentration (Group G Streptococcus [10]) of 1 µg/mL and a Minimum inhibitory concentration [11] of 0.12 µg/mL. For the same molecule, the Minimum inhibitory concentration (Fusobacterium nucleatum [12]) was 0.25 µg/mL, the “Simulated intestinal juice (2 h, 37° C.) (FaSSIF) % active drug generated” value [13] was <1% and the Minimum inhibitory concentration [14] was 16 µg/mL.
With CCC[C@@H]1C[C@@H](C(=O)N[C@@H]([C@H]2O[C@H](SC)[C@H](O)[C@@H](O)[C@H]2O)[C@H](C)Cl)N(C)C1 [Clindamycin, clindamycin, reference compound] the MIC [15] was ≤ 0.03 µg/mL, the MIC (Streptococcus agalactiae [16]) was ≤ 0.03 µg/mL and the MIC (Prevotella bivia [17]) was ≤ 0.03 µg/mL. The MIC (Fusobacterium nucleatum [18]) was ≤ 0.03 µg/mL, the MIC (Clostridium difficile; ATCC700057, read-out: Minimum inhibitory concentration, ATCC 700057) was 8 µg/mL (≈ 18.8 µM) and the MIC (Clostridium difficile; NCTC13366, read-out: Minimum inhibitory concentration, NCTC 13366 - NAP1/027) was 4 µg/mL (≈ 9.41 µM). The MIC (Clostridium difficile; read-out: Minimum inhibitory concentration, antibiotic-susceptible clinical isolate) was 8 µg/mL (≈ 18.8 µM), the MIC (Clostridium difficile; read-out: Minimum inhibitory concentration, ribotype 002 - clinical isolate) was 2 µg/mL (≈ 4.71 µM) and the MIC (Clostridium difficile; read-out: Minimum inhibitory concentration, ribotype 011 - clinical isolate) was 4 µg/mL (≈ 9.41 µM). For the same molecule, the MIC (Clostridium difficile; read-out: Minimum inhibitory concentration, ribotype 027 - clinical isolate) was 4 µg/mL (≈ 9.41 µM), the MIC (Clostridium difficile; read-out: Minimum inhibitory concentration, ribotype 050 - clinical isolate) was 4 µg/mL (≈ 9.41 µM) and the MIC (Clostridium difficile; read-out: Minimum inhibitory concentration, ribotype 176 - clinical isolate) was 4 µg/mL (≈ 9.41 µM). The MIC [19] was 0.06 µg/mL (≈ 0.141 µM), the MIC (Listeria monocytogenes [20]) was 1 µg/mL (≈ 2.35 µM) and the MIC [21] was 0.06 µg/mL (≈ 0.141 µM). For the same molecule, the MIC (Group G Streptococcus [22]) was ≤ 0.03 µg/mL.
